{"source": "paper PMC12892976", "about": "“Alkylation-based optimization of antifungal FPPS inhibitors yields a potent, broad-spectrum lipophilic zoledronate derivative” (mBio, 2025)", "key": {"[1]": {"tested_on": "Candida albicans", "experiment": "checkerboard drug interaction (FICI, MICc);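 as to INH FD (MIC-MICc fold decrease): antifungal plus FPPS inhibitor combinations on Candida albicans tested by a simplified diagonal checkerboard screen, with FICI calculated under the Loewe additivity model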;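 as to KET FD (MIC-MICc fold decrease): antifungal plus FPPS inhibitor combinations on Candida albicans tested by a simplified diagonal checkerboard screen, with FICI calculated under the Loewe additivity model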", "type": "cell-based", "conditions": "C. albicans; for INH FD (MIC-MICc fold decrease): fold decrease of inhibitor MIC", "method": "(§1) Drug interactions between antifungals and FPPS inhibitors were investigated using a simplified checkerboard diagonal screening method ([45]). […] FICIs were determined according to the Loewe additivity model ([17])."}, "[2]": {"tested_on": "Aspergillus flavus", "experiment": "checkerboard drug interaction (FICI, MICc)", "type": "cell-based", "set-up": "INH MICc (KET:INH) / INH MICc (FLC:INH): unit not given beside the values", "conditions": "A. flavus"}, "[3]": {"tested_on": "Aspergillus fumigatus", "experiment": "checkerboard drug interaction (FICI, MICc)", "type": "cell-based", "method": "as §1"}, "[4]": {"tested_on": "Trichophyton rubrum", "experiment": "checkerboard drug interaction (FICI, MICc)", "type": "cell-based", "conditions": "T. rubrum", "method": "as §1"}, "[5]": {"tested_on": "HEK-293T cells", "experiment": "MTT reduction cytotoxicity assay", "type": "cell-based", "conditions": "Homo sapiens, HEK-293T, 72 h, MTT, 72 h"}, "[6]": {"tested_on": "eight fungal species", "experiment": "MIC/MFC summary across the eight fungal species of Table 1", "type": "cell-based", "description": "The antifungal activity of these compounds was evaluated according to CLSI guidelines ([16])."}, "[7]": {"tested_on": "eight fungal species", "experiment": "checkerboard interaction with azoles, summary across the eight species", "type": "cell-based", "conditions": "geometric mean MIC in combination with azoles", "text": "Synergy between lipophilic FPPS inhibitors and azole antifungals was investigated by determining the fractional inhibitory concentration index (FICI) (Fig. 2; Table S1 Fig. S1) ([17]). […]. Derivatives PLA9 and 11, and PDA9, 11, and 12 antagonized azoles in C. albicans, C. neoformans, and C. deuterogattii, yet were largely synergistic in C. glabrata and S. cerevisiae. […]."}, "[8]": {"tested_on": "Cryptococcus deuterogattii", "experiment": "MIC/MFC broth microdilution (CLSI)", "conditions": "Cryptococcus deuterogattii", "method": "(§2) Antifungal susceptibility was determined by broth microdilution according to the CLSI guidelines described in M27-Ed4 ([16]). […] MFC was determined by back-plating drug-treated cultures from MIC broths onto SDA plates. The MFC was defined as the lowest concentration from which no colonies could be cultured."}, "[9]": {"tested_on": "Cryptococcus neoformans", "experiment": "MIC/MFC broth microdilution (CLSI)", "conditions": "Cryptococcus neoformans", "method": "as §2"}, "[10]": {"tested_on": "Candida glabrata", "experiment": "MIC/MFC broth microdilution (CLSI)", "conditions": "Nakaseomyces glabratus, CBS138", "method": "as §2"}, "[11]": {"tested_on": "Aspergillus flavus", "experiment": "MIC/MFC broth microdilution (CLSI)", "conditions": "ATCC204304", "method": "as §2"}, "[12]": {"tested_on": "Aspergillus fumigatus", "experiment": "MIC/MFC broth microdilution (CLSI)", "conditions": "ATCC204305", "method": "as §2"}, "[13]": {"tested_on": "Trichophyton rubrum", "experiment": "MIC/MFC broth microdilution (CLSI)", "conditions": "Trichophyton rubrum", "method": "as §2"}, "[14]": {"conditions": "Fractional Inhibitory Concentration Index, fluconazole + inhibitor"}, "[15]": {"conditions": "Fractional Inhibitory Concentration Index, itraconazole + inhibitor"}, "[16]": {"conditions": "Fractional Inhibitory Concentration Index, ketoconazole + inhibitor"}, "[17]": {"conditions": "MIC of the inhibitor in combination with fluconazole"}, "[18]": {"conditions": "MIC of the inhibitor in combination with itraconazole"}, "[19]": {"conditions": "MIC of the inhibitor in combination with ketoconazole"}, "[20]": {"conditions": "MIC-MICc fold decrease of fluconazole, negative = increase"}, "[21]": {"conditions": "MIC-MICc fold decrease of itraconazole, negative = increase"}, "[22]": {"conditions": "MIC-MICc fold decrease of ketoconazole, negative = increase"}, "[23]": {"conditions": "MIC-MICc fold decrease of the inhibitor, with fluconazole"}, "[24]": {"conditions": "MIC-MICc fold decrease of the inhibitor, with itraconazole"}, "[25]": {"conditions": "MIC-MICc fold decrease of the inhibitor, with ketoconazole"}}, "note": "Where two headings read alike, the source gives them in different places."}
{"smiles": "CCCCCCCCCN1CCC[C@H]1C(=O)N[C@H](CC(=O)OC)C(=O)OC", "note": "[dmPDA9]", "values": [{"measurement": "INH FD (MIC-MICc fold decrease)", "setting": "[1]; ITR:INH combination", "value": 2}, {"measurement": "FICI", "setting": "[1]; KET:INH combination", "value": "≥4"}, {"measurement": "INH MICc", "setting": "[1]; KET:INH combination, MIC of the inhibitor in combination with KET", "value": 64}, {"measurement": "KET FD (MIC-MICc fold decrease)", "setting": "[1]; KET:INH combination, fold decrease of KET MIC", "value": "< -4"}, {"measurement": "INH FD (MIC-MICc fold decrease)", "setting": "[1]; KET:INH combination", "value": 2}, {"measurement": "FICI (FLC:INH)", "setting": "[2]; [14]", "value": 2}, {"measurement": "FICI (ITR:INH)", "setting": "[2]; [15]", "value": 2}, {"measurement": "FICI (KET:INH)", "setting": "[2]; [16]", "value": 1}, {"measurement": "INH MICc (FLC:INH)", "setting": "[2]; [17]", "value": 256}, {"measurement": "INH MICc (ITR:INH)", "setting": "[2]; [18]", "value": 256}, {"measurement": "INH MICc (KET:INH)", "setting": "[2]; [19]", "value": 128}, {"measurement": "FLC FD (FLC:INH)", "setting": "[2]; [20]", "value": 1}, {"measurement": "ITR FD (ITR:INH)", "setting": "[2]; [21]", "value": 1}, {"measurement": "KET FD (KET:INH)", "setting": "[2]; [22]", "value": 2}, {"measurement": "INH FD (FLC:INH)", "setting": "[2]; [23]", "value": 1}, {"measurement": "INH FD (ITR:INH)", "setting": "[2]; [24]", "value": 1}, {"measurement": "INH FD (KET:INH)", "setting": "[2]; [25]", "value": 2}, {"measurement": "FICI (FLC:INH)", "setting": "[3]; [14]", "value": 1.5}, {"measurement": "FICI (ITR:INH)", "setting": "[3]; [15]", "value": 0.52}, {"measurement": "FICI (KET:INH)", "setting": "[3]; [16]", "value": 2}, {"measurement": "INH MICc (FLC:INH)", "setting": "[3]; [17]", "value": 128}, {"measurement": "INH MICc (ITR:INH)", "setting": "[3]; [18]", "value": 2}, {"measurement": "INH MICc (KET:INH)", "setting": "[3]; [19]", "value": 128}, {"measurement": "FLC FD (FLC:INH)", "setting": "[3]; [20]", "value": 2}, {"measurement": "ITR FD (ITR:INH)", "setting": "[3]; [21]", "value": 2}, {"measurement": "KET FD (KET:INH)", "setting": "[3]; [22]", "value": 1}, {"measurement": "INH FD (FLC:INH)", "setting": "[3]; [23]", "value": 1}, {"measurement": "INH FD (ITR:INH)", "setting": "[3]; [24]", "value": 64}, {"measurement": "INH FD (KET:INH)", "setting": "[3]; [25]", "value": 1}, {"measurement": "FICI (FLC:INH)", "setting": "[4]; [14]", "value": 1.25}, {"measurement": "FICI (ITR:INH)", "setting": "[4]; [15]", "value": 1.13}, {"measurement": "FICI (KET:INH)", "setting": "[4]; [16]", "value": 1.25}, {"measurement": "INH MICc (FLC:INH)", "setting": "[4]; [17]", "value": 32}, {"measurement": "INH MICc (ITR:INH)", "setting": "[4]; [18]", "value": 32}, {"measurement": "INH MICc (KET:INH)", "setting": "[4]; [19]", "value": 32}, {"measurement": "FLC FD (FLC:INH)", "setting": "[4]; [20]", "value": 4}, {"measurement": "ITR FD (ITR:INH)", "setting": "[4]; [21]", "value": 8}, {"measurement": "KET FD (KET:INH)", "setting": "[4]; [22]", "value": 4}, {"measurement": "INH FD (FLC:INH)", "setting": "[4]; [23]", "value": 1}, {"measurement": "INH FD (ITR:INH)", "setting": "[4]; [24]", "value": 1}, {"measurement": "INH FD (KET:INH)", "setting": "[4]; [25]", "value": 1}, {"measurement": "IC50", "setting": "[5]; HEK-293T cells, read-out: IC50", "value": 10.4, "unit": "µg/mL"}, {"measurement": "IC50", "setting": "[5]; read-out: HEK IC50", "value": 10.4, "unit": "µg/mL"}, {"measurement": "MFC", "setting": "[6]; across eight species, read-out: Geometric mean MFC", "value": 181, "unit": "µg/mL"}, {"measurement": "MIC", "setting": "[6]; geometric mean across eight species, read-out: GM fungal MIC", "value": 83, "unit": "µg/mL"}, {"measurement": "MIC", "setting": "[6]; read-out: Geometric mean MIC", "value": 83, "unit": "µg/mL"}, {"measurement": "GM fungal MICc", "setting": "[7]", "value": 55.4}, {"measurement": "MFC", "setting": "[8]", "value": 64, "unit": "µg/mL"}, {"measurement": "MIC", "setting": "[8]", "value": 64, "unit": "µg/mL"}, {"measurement": "MFC", "setting": "[9]", "value": 128, "unit": "µg/mL"}, {"measurement": "MIC", "setting": "[9]", "value": 32, "unit": "µg/mL"}, {"measurement": "MFC", "setting": "[10]", "value": "> 128", "unit": "µg/mL"}, {"measurement": "MIC", "setting": "[10]", "value": 128, "unit": "µg/mL"}, {"measurement": "MFC", "setting": "[11]", "value": "> 128", "unit": "µg/mL"}, {"measurement": "MIC", "setting": "[11]", "value": "> 128", "unit": "µg/mL"}, {"measurement": "MFC", "setting": "[12]", "value": "> 128", "unit": "µg/mL"}, {"measurement": "MIC", "setting": "[12]", "value": 128, "unit": "µg/mL"}, {"measurement": "MFC", "setting": "[13]", "value": "> 128", "unit": "µg/mL"}, {"measurement": "MIC", "setting": "[13]", "value": 32, "unit": "µg/mL"}]}
